The text below walks through data of patent US20260055111A1, “CRYSTALLINE FORM OF PYRAZOLOPYRIMIDINE ESTER COMPOUND AND METHODS OF PREPARING THE SAME” (Shanghai Maius Pharmaceutical Co. Ltd., priority 2022, published 2026).

“Also recorded” adds a separate entry of the source.

The nature of series [1]: Stability study: change in purity of solid forms after storage under different conditions. The settings on record: for Purity, Initial (Day 0): before storage; for Overall stability / degree of degradation compared with other forms: forced degradation conditions of the stability study; for Purity, Room Temperature (Day 10): stored at room temperature for 10 days; for Purity, In Light (Day 10): stored in light for 10 days. In kind it is physicochemical. As to the method:
Samples of the amorphous and crystalline (Forms I and II) compound of formula (I) were stored under different conditions.
Storage conditions for the crystalline form Form II: at 60° C. for 10 days; at 60° C. and 75% RH (relative humidity) for 10 days; in light for 10 days; and at room temperature for 10 days.
Storage conditions for the amorphous and crystalline (Form I) forms: at 40° C. for 10 days; at 60° C. and 75% RH for 10 days; in light for 10 days; and at room temperature for 10 days.

Series [2] in a line: Hygroscopicity by dynamic vapor sorption (DVS), with XRPD before and after. The series is classed as physicochemical.
For series [3] the following is noted: cited from earlier work.
[4] abbreviates: stored at 60° C. and 75% RH for 10 days.
The mark [5] stands for this setting: stored at room temperature and in light for 10 days.

With `C=CC(=O)N1CCC[C@@H](n2nc(-c3ccc(Oc4ccccc4)cc3)c3c(NC(=O)OCCCC)ncnc32)C1` [Amorphous, 1-[(3R)-3-[4-(butoxycarbonyl)-amino-3-(4-phenoxyphenyl)-1H-pyrazolo[3,4-d]pyrimidin-1-yl]-1-piperidinyl]-2-propen-1-one], in series [1], the “Purity, Initial (Day 0)” value is 99.07%; the “Overall stability / degree of degradation compared with other forms” value is “poor stability”; the “Purity, Room Temperature (Day 10)” value stood at 98.01%; the “Purity, In Light (Day 10)” value is recorded as 98.63%. Besides, the “Purity, 40° C. (Day 10)” value in series [1] (stored at 40° C. for 10 days) came to 96.10%. Besides, the Degradation in words result in series [1] (stored at 40° C. for 10 days, listed as amorphous) is listed as “Noticeable degradation”. Also, the Degradation in words entry in series [1] (stored at 40° C. for 10 days, listed as amorphous compound) is on record as “Significant degradation”. In addition, in series [1] (setting [4]), the Degradation in words entry is recorded as “almost complete degradation” and the “Purity, 60° C. + 75% RH (Day 10)” value is given as 0.27%.

As to `C=CC(=O)N1CCC[C@@H](n2nc(-c3ccc(Oc4ccccc4)cc3)c3c(NC(=O)OCCCC)ncnc32)C1` [Form I, 1-[(3R)-3-[4-(butoxycarbonyl)-amino-3-(4-phenoxyphenyl)-1H-pyrazolo[3,4-d]pyrimidin-1-yl]-1-piperidinyl]-2-propen-1-one], the Hygroscopicity entry in series [2] was “almost non-hygroscopic”. For the same compound, in series [1], the “Purity, Initial (Day 0)” value was determined as 98.68%; the “Overall stability / degree of degradation compared with other forms” value was “lower degrees of degradation than the amorphous form”; the “Purity, Room Temperature (Day 10)” value is on record as 98.64%; the “Purity, In Light (Day 10)” value turned out to be 98.62%. Moreover, in series [1] (stored at 40° C. for 10 days), the “Purity, 40° C. (Day 10)” value came out at 98.60%. Besides, the “Purity, 60° C. + 75% RH (Day 10)” value in series [1] (setting [4]) is 90.62%. Also, in series [1] (setting [5]), the Stability in words result is given as “very stable; also recorded: remaining stable”.

On to `C=CC(=O)N1CCC[C@@H](n2nc(-c3ccc(Oc4ccccc4)cc3)c3c(NC(=O)OCCCC)ncnc32)C1` [Form II, 1-[(3R)-3-[4-(butoxycarbonyl)-amino-3-(4-phenoxyphenyl)-1H-pyrazolo[3,4-d]pyrimidin-1-yl]-1-piperidinyl]-2-propen-1-one], for which the “XRPD pattern before and after the DVS determination” value in series [2] is “remained the same”. In addition, in series [1], the “Purity, Initial (Day 0)” value was 99.13%; the “Overall stability / degree of degradation compared with other forms” value was “lower degree of degradation than the amorphous form; also recorded: obviously better than the amorphous form and even better than Form I”; the “Purity, Room Temperature (Day 10)” value worked out at 99.13%; the “Purity, In Light (Day 10)” value worked out at 99.17%. Moreover, the Stability in words result in series [1] (degradation conditions such as high-temperature and high-humidity) was “stable”. For the same compound, in series [1] (setting [4]), the “Purity, 60° C. + 75% RH (Day 10)” value stood at 97.80%. In series [1] (stored at 60° C. for 10 days), the “Purity, 60° C. (Day 10)” value is listed as 98.90%. Also, the Stability in words entry in series [1] (setting [5]) is “more stable”.

`C=CC(=O)N1CCC[C@@H](n2nc(-c3ccc(Oc4ccccc4)cc3)c3c(NC(=O)OCCCC)ncnc32)C1` [formula (I), 1-[(3R)-3-[4-(butoxycarbonyl)-amino-3-(4-phenoxyphenyl)-1H-pyrazolo[3,4-d]pyrimidin-1-yl]-1-piperidinyl]-2-propen-1-one]: in series [3] (AUC of the active metabolite 4-AAM, among the prodrugs of CN 202111131059.0), the “4-AAM AUC” value is “highest”. For the same compound, in series [3] (among the prodrugs of CN 202111131059.0), the “AUC of the prodrug itself” value was “lowest”. The “Rate of hydrolysis in blood” value in series [3] (among the pyrazolopyrimidine ester prodrugs of CN 202111131059.0) is on record as “most rapidly”.
